Laboratory results published in US20190297889A1, “USE OF A DIFLUORO-(2-HYDROXYPROPYL)PYRIDINE COMPOUND AS A FUNGICIDE FOR CONTROL OF PHYTOPATHOGENIC FUNGI OF RICE” (Dow AgroSsciences LLC, priority 2016, published 2019).
Like-named read-outs stand apart in the source and are kept apart here.

Legend:
[1] = system: Gaeumannomyces graminis var. graminis; experiment: Field assessment of Gaeumannomyces graminis var. graminis (GAEUGR) in rice; assay type: in vivo
From the text: The applications were made as preventative treatments, with no infection at the time of application. The first symptoms of […] were observed after three applications.

Rhizoctonia solani = experiment: Field assessment of Rhizoctonia solani (RHIZSO, sheath blight) in rice; assay type: in vivo; settings: 2 sprays
Procedure: The experimental plots were inoculated with Rhizoctonia solani_2 days after the first application at growth stage BBCH 59 of rice.
Disease infection percentage was calculated as (lesion lengths)/(total sheath lengths)×100% on 6 plants per plot randomly. Sheath blight infection was assessed three times, 7 days after application A (DAAA) plus 7 and 14 DAAB. The disease infection was recorded following EPPO PP1/26 guideline prescriptions.

Pyricularia oryzae = assay type: in vivo; settings: 2 sprays, rice field
Cochliobolus miyabeanus = experiment: Field assessment of Cochliobolus miyabeanus (COCHMI, brown spot) in rice; settings: for Percent Control (AUDPC), Panicle: panicles; for Percent Control (AUDPC), Plot: whole plot foliage
[2] = 100 g ai/ha, Adjuvant A (Agnique BP-420) 0.2% v/v
[3] = 150 g ai/ha, Adjuvant A (Agnique BP-420) 0.3% v/v
[4] = 125 g ai/ha, commercial standard

N#Cc1ccc(Oc2ccc(C(F)(F)C(O)(Cn3ncnc3S)c3ccc(F)cc3F)nc2)cc1 (stereo not drawn) [Compound I, 4-((6-(2-(2,4-difluorophenyl)-1,1-difluoro-2-hydroxy-3-(5-mercapto-1H-1,2,4-triazol-1-yl)propyl)pyridin-3-yl)oxy)benzonitrile] was tested, and the “% Control (AUDPC of visual infection on the plant)” value ([1]; 100 g ai/ha, Adjuvant A (Agnique BP-420) 0.1% v/v) was “B (51-75)”, the “% Control (AUDPC of visual infection on the plant)” value [1, 2] was “B (51-75)” and the “% Control (AUDPC of visual infection on the plant)” value ([1]; 100 g ai/ha, Adjuvant A (Agnique BP-420) 0.3% v/v) was “B (51-75)”. For the same molecule, the “% Control (AUDPC of visual infection on the plant)” value ([1]; 100 g ai/ha, Adjuvant B (Agnique BP-420 + MSO) 0.5% v/v) was “B (51-75)”, the “% Control (AUDPC of visual infection on the plant)” value ([1]; 100 g ai/ha, Adjuvant B (Agnique BP-420 + MSO) 1.0% v/v) was “B (51-75)” and the “% Control (AUDPC of visual infection on the plant)” value ([1]; 100 g ai/ha, Adjuvant B (Agnique BP-420 + MSO) 1.5% v/v) was “B (51-75)”. The “% Control (AUDPC of visual infection on the plant)” value ([1]; 100 g ai/ha, adjuvant None) was “C (26-50)”, the “% Control (AUDPC of visual infection on the plant)” value [1, 3] was “B (51-75)” and the “% Control (AUDPC of visual infection on the plant)” value ([1]; 200 g ai/ha, Adjuvant A (Agnique BP-420) 0.4% v/v) was “A (76-100)”. The “Disease (% Control) RHIZSO, based on AUDPC” value (shortened to “Disease (% Control) RHIZSO”) (Rhizoctonia solani; 50 g ai/ha) was “D (1-25)”, the “Disease (% Control) RHIZSO” value (Rhizoctonia solani; 100 g ai/ha) was “C (26-50)” and the “Disease (% Control) RHIZSO” value (Rhizoctonia solani; 150 g ai/ha) was “C (26-50)”. For the same molecule, the “Disease (% Control) RHIZSO” value (Rhizoctonia solani; 200 g ai/ha) was “B (51-75)”, the “Disease (% Control) PYRIOR, based on AUDPC” value (shortened to “Disease (% Control) PYRIOR”) (Pyricularia oryzae; 50 g ai/ha) was “C (26-50)” and the “Disease (% Control) PYRIOR” value (Pyricularia oryzae; 100 g ai/ha) was “B (51-75)”. For the same molecule, the “Disease (% Control) PYRIOR” value (Pyricularia oryzae; 150 g ai/ha) was “A (76-100)”, the “Disease (% Control) PYRIOR” value (Pyricularia oryzae; 200 g ai/ha) was “A (76-100)” and the “% Control (AUDPC of visual infection on the plant)” value (Cochliobolus miyabeanus; 50 g ai/ha, Adjuvant A (Agnique BP-420) 0.05% v/v) was “B (51-75)”. For the same molecule, the “% Control (AUDPC of visual infection on the plant)” value (Cochliobolus miyabeanus; 50 g ai/ha, Adjuvant A (Agnique BP-420) 0.1% v/v) was “B (51-75)”, the “% Control (AUDPC of visual infection on the plant)” value (Cochliobolus miyabeanus; 50 g ai/ha, Adjuvant A (Agnique BP-420) 0.15% v/v) was “B (51-75)” and the “% Control (AUDPC of visual infection on the plant)” value (Cochliobolus miyabeanus; 50 g ai/ha, Adjuvant B (Agnique BP-420 + MSO) 0.25% v/v) was “B (51-75)”. The “% Control (AUDPC of visual infection on the plant)” value (Cochliobolus miyabeanus; 50 g ai/ha, Adjuvant B (Agnique BP-420 + MSO) 0.5% v/v) was “B (51-75)”, the “% Control (AUDPC of visual infection on the plant)” value (Cochliobolus miyabeanus; 50 g ai/ha, Adjuvant B (Agnique BP-420 + MSO) 0.75% v/v) was “B (51-75)” and the “Percent Control (AUDPC), Panicle” value (Cochliobolus miyabeanus; 50 g ai/ha, […]) was “C (26-50)”. The “Percent Control (AUDPC), Plot” value (Cochliobolus miyabeanus; 50 g ai/ha, […]) was “C (26-50)”, the “% Control (AUDPC of visual infection on the plant)” value (Cochliobolus miyabeanus; 50 g ai/ha, adjuvant None) was “C (26-50)” and the “Percent Control (AUDPC), Panicle” value (Cochliobolus miyabeanus; 75 g ai/ha, […]) was “C (26-50)”. The “Percent Control (AUDPC), Plot” value (Cochliobolus miyabeanus; 75 g ai/ha, […]) was “C (26-50)”, the “% Control (AUDPC of visual infection on the plant)” value (Cochliobolus miyabeanus; [2]) was “B (51-75)” and the “Percent Control (AUDPC), Panicle” value (Cochliobolus miyabeanus; 100 g ai/ha, […]) was “C (26-50)”. The “Percent Control (AUDPC), Plot” value (Cochliobolus miyabeanus; 100 g ai/ha, […]) was “C (26-50)”, the “Percent Control (AUDPC), Panicle” value (Cochliobolus miyabeanus; 125 g ai/ha, […]) was “B (51-75)” and the “Percent Control (AUDPC), Plot” value (Cochliobolus miyabeanus; 125 g ai/ha, […]) was “C (26-50)”. The “% Control (AUDPC of visual infection on the plant)” value (Cochliobolus miyabeanus; [3]) was “A (76-100)”, the “Percent Control (AUDPC), Panicle” value (Cochliobolus miyabeanus; 150 g ai/ha, […]) was “B (51-75)” and the “Percent Control (AUDPC), Plot” value (Cochliobolus miyabeanus; 150 g ai/ha, […]) was “B (51-75)”.
With CCCC1COC(Cn2cncn2)(c2ccc(Cl)cc2Cl)O1 (stereo not drawn) [Propiconazole, reference compound] the “Percent Control (AUDPC), Panicle” value (Cochliobolus miyabeanus; [4]) was “B (51-75)” and the “Percent Control (AUDPC), Plot” value (Cochliobolus miyabeanus; [4]) was “B (51-75)”.
For N#CC(CCc1ccc(Cl)cc1)(Cn1cncn1)c1ccccc1 (stereo not drawn) [Fenbuconazole, reference compound], the “% Control (AUDPC of visual infection on the plant)” value ([1]; 144 g ai/ha, adjuvant Inex-A 0.15% v/v) was “B (51-75)”.
